Measured values from patent US8822448B2, “Pyrazoloquinoline compound” (Astellas Pharma Inc., priority 2010, dated 2014).

Legend:
PDE9 = PDE9 (Homo sapiens (Human), UniProt O76083); test: PDE9-inhibiting activity (SPA enzyme assay); assay type: biochemical; details: IC50 values; cGMP 1 μM substrate, 30° C.; read-out: PDE9 inhibition
Description: The PDE9-inhibiting activity was measured by the following method. That is, to a buffer solution containing tris(hydroxymethyl)aminomethane-hydrochloric acid (40 mM, pH 8.0), magnesium chloride (5 mM), and 2-mercaptoethanol (4 mM) were added cGMP (1 μM) and ^3H-cGMP (0.33 μCi/ml) to give a substrate buffer solution. A test substance solution and an enzyme solution which had been adjusted to an optimal concentration were added thereto to perform a reaction at 30° C. The enzyme reaction was stopped by the addition of Scintillation Proximity Assay (SPA) Beads (Perkin Elmer, USA) containing 5 mM 3-isobutyl-1-methylxanthine (IBMX). For the enzyme activity, the amount of 5′-GMP, which is a reaction degradation product bound to SPA beads, was measured with a TopCount microplate reader (Hewlett Packard, USA). The inhibitory rate was calculated by taking the radioactivity of the control containing no test substance as (A), taking the radioactivity of the blank containing no enzyme as (B), and taking the radioactivity of the test substance as (C), and using the following equation.

[1] = tested on: urethra relaxation response; test: Simultaneous measurement model for rat bladder contraction/urethra relaxation responses; assay type: in vivo; details: female SD rat, increase relative to the solvent administration group, read-out: Ratio with increased urethra relaxation time during voiding (vs vehicle) (%)
Description: Simultaneous measurement of the bladder contraction and urethra relaxation responses using a rat was carried out with a partial modification of a method in Wibberley et al. (Wibberley, A., et al., Br. J. Pharmacol., 136: pp. 399-414 (2002)). That is, a female Sprague-Dawley (SD) rat (Charles River Laboratories Japan, Inc.) was anesthetized with urethane, and the bladder was exposed by a midline incision in the lower abdomen. A double lumen cannula (a cannula having a dual structure by PE190 and PE50) from the bladder apex was inserted into the bladder, and the bladder apex and the cannula were fixed by sutures at a point where the tip reached the proximal urethra. While infusing physiological saline into the urethra through the outer cannula, the urethral inner pressure was measured by a pressure transducer through the inner cannula with a saline solution infused into the urethra through the outer cannula. On the other hand, a single cannula (PESO) was inserted into the bladder from the bladder apex and placed therein. The inner pressure of the bladder was measured through this cannula. After a postoperative stabilization period had passed, physiological saline was infused into the bladder through the cannula of the bladder apex to cause a bladder contraction reaction, and thus cause a urethra relaxation response accompanying the bladder contraction reflex. The test substance was administered intravenously or intraduodenally.

Sequence of PDE9 (O76083 whole entry): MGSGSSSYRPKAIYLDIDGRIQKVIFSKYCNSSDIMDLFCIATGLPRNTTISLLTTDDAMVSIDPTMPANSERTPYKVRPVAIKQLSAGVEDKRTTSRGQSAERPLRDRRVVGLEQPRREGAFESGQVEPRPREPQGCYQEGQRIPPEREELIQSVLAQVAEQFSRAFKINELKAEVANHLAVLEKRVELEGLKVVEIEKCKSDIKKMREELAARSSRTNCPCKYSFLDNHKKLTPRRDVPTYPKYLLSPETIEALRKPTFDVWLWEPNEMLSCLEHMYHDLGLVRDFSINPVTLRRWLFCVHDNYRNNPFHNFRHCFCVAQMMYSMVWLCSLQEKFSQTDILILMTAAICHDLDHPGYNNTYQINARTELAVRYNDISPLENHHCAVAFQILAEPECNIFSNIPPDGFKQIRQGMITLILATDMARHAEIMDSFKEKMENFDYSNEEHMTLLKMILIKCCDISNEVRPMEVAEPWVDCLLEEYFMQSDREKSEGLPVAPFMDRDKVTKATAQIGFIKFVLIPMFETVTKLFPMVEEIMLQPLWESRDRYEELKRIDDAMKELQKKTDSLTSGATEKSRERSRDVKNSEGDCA

SMILES | IC50 (PDE9) [nM] | response vs control in vivo at 1 mg/kg [1] [%] | melting point [°C]
COCCCCN1CCN(C(=O)c2cc3c(cc2C)[nH]c(=O)c2cnn(C4CCC4)c23)CC1 [Example 79] | 23 | 139 | 161 to 163
Cc1cc2[nH]c(=O)c3cnn(C4CCOCC4)c3c2cc1C(=O)N1CCN(CCC(F)(F)F)CC1.Cl [Example 128] | 5.2 | 136 | 174 to 176
